The structures appear in SMILES notation. In brackets after ≈: the same amount, converted by molar mass.

The first data set deals with rice plant.
Assay: not given
The settings on record: blast prevention test, 200 ppm.
Turning to `Cc1cc(C)n(-c2nc(C)c(C)c(Oc3ccccc3)n2)n1` [Compound 38], the “Degree of chemical injury” value stood at 0.

On to `Cc1ccc(Oc2cc(C)nc(-n3nc(C)cc3C)n2)c(C)c1` [Compound 27], for which the “Degree of chemical injury” value worked out at 0.

Another data set deals with Cochliobolus miyabeanus. The experiment in a line: Antimicrobial activity (mycelium growth inhibition, PDA medium). It is filed as cell-based. To be noted: Bipolaris oryzae, read-out: ED50 value.
As to `Cc1cc(C)n(-c2nc(C)c(C)c(Oc3ccccc3)n2)n1` [Compound 38], the IC50 was found to be 2.8 µg/mL (≈ 9.51 µM).

As to `Cc1ccc(Oc2cc(C)nc(-n3nc(C)cc3C)n2)c(C)c1` [Compound 27], the IC50 worked out at 2.2 µg/mL (≈ 7.13 µM).

Another data set concerns Pyricularia oryzae.
Assay: not given
The settings on record: rice blast, curative treatment; sprayed liquid 200 ppm; 5 days after spraying. It is filed as in vivo, Pyricularia oryzae on rice plant (variety: Asahi).
As to `Cc1cc(C)n(-c2nc(C)c(C)c(Oc3ccccc3)n2)n1` [Compound 38], the “Control Value” is 100%.

As for `Cc1ccc(Oc2cc(C)nc(-n3nc(C)cc3C)n2)c(C)c1` [Compound 27], the “Control Value” came out at 100%.

For another data set, the system named is Pyricularia oryzae. The experiment in a line: microbe, parasite or virus in culture. Format: cell-based. To be noted: read-out: ED50 value.
As to `Cc1cc(C)n(-c2nc(C)c(C)c(Oc3ccccc3)n2)n1` [Compound 38], the IC50 was 0.04 µg/mL (≈ 0.136 µM).

Take `Cc1ccc(Oc2cc(C)nc(-n3nc(C)cc3C)n2)c(C)c1` [Compound 27]: the IC50 stood at 0.02 µg/mL (≈ 0.0649 µM).

The next data set has as its system cucumber plant.
Assay: not given
The settings on record: in vivo.
`Cc1cc(C)n(-c2nc(C)c(C)c(Oc3ccccc3)n2)n1` [Compound 38]: the “Degree of chemical injury” value is recorded as 0.

In another data set the test system is rice plant.
Assay: not given
The settings on record: blast curative test, 200 ppm.
Consider `Cc1cc(C)n(-c2nc(C)c(C)c(Oc3ccccc3)n2)n1` [Compound 38], for which the “Degree of chemical injury” value was 0.

For `Cc1ccc(Oc2cc(C)nc(-n3nc(C)cc3C)n2)c(C)c1` [Compound 27], the “Degree of chemical injury” value turned out to be 0.

The next data set concerns Diaporthe citri. Put plainly: Antimicrobial activity (mycelium growth inhibition, PDA medium). It is filed as cell-based. To be noted: 24° C., read-out: ED50 value. The method, then: (§1) Experimental Example 5 (Test for Antimicrobial Activity Against Various Plant Phathogenic Fungi)
(§2) 1 ml of an acetone solution of each of test compounds and 20 ml of the PDA medium (50° C.) to prepare media containing the chemical in different concentrations, followed by charging into a petri dish with a diameter of 9 cm where it was solidified flat. On the central portion of the chemical-containing medium was inoculated a fungus-containing medium a piece of ager black-containing mycelia which was obtained by punching by means of a cork borer the tip portion of mycelia of each test fungus which had been cultured in advance in the PDA medium, followed by cultivating at 24° C. Two to six days after the cultivation, the diameter of the mycelia was measured and mycelium growth inhibiting rate was calculated from a comparison with that of a non-treated plot. The mycelium growth inhibiting rate was plotted on a logarithmic probability paper to determine an ED50 value.
For the compound `Cc1cc(C)n(-c2nc(C)c(C)c(Oc3ccccc3)n2)n1` [Compound 38], the IC50 was found to be 3.8 µg/mL (≈ 12.9 µM).

`Cc1ccc(Oc2cc(C)nc(-n3nc(C)cc3C)n2)c(C)c1` [Compound 27]: the IC50 came out at 2.9 µg/mL (≈ 9.4 µM).

A further data set relates to Endothia parasitica. The description is as above. The settings on record: Cryphonectria parasitica, 24° C., read-out: ED50 value. Format: cell-based. The procedure:
as §1, §2
For the compound `Cc1cc(C)n(-c2nc(C)c(C)c(Oc3ccccc3)n2)n1` [Compound 38], the IC50 amounted to 6.2 µg/mL (≈ 21.1 µM).

For `Cc1ccc(Oc2cc(C)nc(-n3nc(C)cc3C)n2)c(C)c1` [Compound 27], the IC50 was determined as 6.3 µg/mL (≈ 20.4 µM).

For another data set, the system named is Sclerotinia fructigena. Described as above. It is filed as cell-based. To be noted: 24° C., read-out: ED50 value. The procedure:
as §1, §2
Turning to `Cc1cc(C)n(-c2nc(C)c(C)c(Oc3ccccc3)n2)n1` [Compound 38], the IC50 was found to be 1.6 µg/mL (≈ 5.44 µM).

For the compound `Cc1ccc(Oc2cc(C)nc(-n3nc(C)cc3C)n2)c(C)c1` [Compound 27], the IC50 was 1.4 µg/mL (≈ 4.54 µM).

For the next data set, the system named is Alternaria padwikii. The data set is described as above. It is filed as cell-based. To be noted: 24° C., read-out: ED50 value. The procedure: as §1, §2
On to `Cc1cc(C)n(-c2nc(C)c(C)c(Oc3ccccc3)n2)n1` [Compound 38], for which the IC50 amounted to 1.7 µg/mL (≈ 5.78 µM).

Turning to `Cc1ccc(Oc2cc(C)nc(-n3nc(C)cc3C)n2)c(C)c1` [Compound 27], the IC50 was 1.9 µg/mL (≈ 6.16 µM).

The test system of another data set is Phizoctonia solani. The description is as above. It is filed as cell-based. To be noted: 24° C., read-out: ED50 value. The procedure: as §1, §2
On to `Cc1cc(C)n(-c2nc(C)c(C)c(Oc3ccccc3)n2)n1` [Compound 38], for which the IC50 is 2 µg/mL (≈ 6.79 µM).

Consider `Cc1ccc(Oc2cc(C)nc(-n3nc(C)cc3C)n2)c(C)c1` [Compound 27], for which the IC50 was 1.1 µg/mL (≈ 3.57 µM).

A further data set has as its system Glomerella cingulata. Described as above. Format: cell-based. The settings on record: Colletotrichum gloeosporioides, 24° C., read-out: ED50 value. The procedure:
as §1, §2
`Cc1cc(C)n(-c2nc(C)c(C)c(Oc3ccccc3)n2)n1` [Compound 38]: the IC50 turned out to be 7.3 µg/mL (≈ 24.8 µM).

Consider `Cc1ccc(Oc2cc(C)nc(-n3nc(C)cc3C)n2)c(C)c1` [Compound 27], for which the IC50 was 6.7 µg/mL (≈ 21.7 µM).

The next data set has as its system Sclerotinia sclerotiorum. Described as above. It is filed as cell-based. The settings on record: 24° C., read-out: ED50 value. The procedure: as §1, §2
Consider `Cc1cc(C)n(-c2nc(C)c(C)c(Oc3ccccc3)n2)n1` [Compound 38], for which the IC50 was 3.6 µg/mL (≈ 12.2 µM).

Take `Cc1ccc(Oc2cc(C)nc(-n3nc(C)cc3C)n2)c(C)c1` [Compound 27]: the IC50 stood at 4.8 µg/mL (≈ 15.6 µM).

A further data set concerns Pellicularia sasakii. Described as above. Format: cell-based. The settings on record: 24° C., read-out: ED50 value. The method, then: as §1, §2
Take `Cc1cc(C)n(-c2nc(C)c(C)c(Oc3ccccc3)n2)n1` [Compound 38]: the IC50 was found to be 1.2 µg/mL (≈ 4.08 µM).

In the case of `Cc1ccc(Oc2cc(C)nc(-n3nc(C)cc3C)n2)c(C)c1` [Compound 27], the IC50 worked out at 1 µg/mL (≈ 3.24 µM).

The subject of a further data set is Curvularia sp. The description is as above. It is filed as cell-based. The settings on record: 24° C., read-out: ED50 value. The procedure:
as §1, §2
As for `Cc1cc(C)n(-c2nc(C)c(C)c(Oc3ccccc3)n2)n1` [Compound 38], the IC50 stood at 1.5 µg/mL (≈ 5.1 µM).

With `Cc1ccc(Oc2cc(C)nc(-n3nc(C)cc3C)n2)c(C)c1` [Compound 27], the IC50 turned out to be 1.6 µg/mL (≈ 5.19 µM).

A further data set concerns Helminthosporium gramineum. Described as above. It is filed as cell-based. The settings on record: 24° C., read-out: ED50 value. The method, then: as §1, §2
For the compound `Cc1cc(C)n(-c2nc(C)c(C)c(Oc3ccccc3)n2)n1` [Compound 38], the IC50 came to 3.2 µg/mL (≈ 10.9 µM).

Consider `Cc1ccc(Oc2cc(C)nc(-n3nc(C)cc3C)n2)c(C)c1` [Compound 27], for which the IC50 came out at 3.6 µg/mL (≈ 11.7 µM).

The next data set has as its system Mycosphaerella melonis. The description is as above. It is filed as cell-based. The settings on record: 24° C., read-out: ED50 value. The method, then: as §1, §2
Consider `Cc1cc(C)n(-c2nc(C)c(C)c(Oc3ccccc3)n2)n1` [Compound 38], for which the IC50 was 4 µg/mL (≈ 13.6 µM).

For `Cc1ccc(Oc2cc(C)nc(-n3nc(C)cc3C)n2)c(C)c1` [Compound 27], the IC50 stood at 4.6 µg/mL (≈ 14.9 µM).

The test system of another data set is Botrytis cinerea. The description is as above. Format: cell-based. The settings on record: 24° C., read-out: ED50 value. The method, then:
as §1, §2
On to `Cc1cc(C)n(-c2nc(C)c(C)c(Oc3ccccc3)n2)n1` [Compound 38], for which the IC50 worked out at 8.8 µg/mL (≈ 29.9 µM).

With `Cc1ccc(Oc2cc(C)nc(-n3nc(C)cc3C)n2)c(C)c1` [Compound 27], the IC50 came to 9.8 µg/mL (≈ 31.8 µM).

Another data set concerns Fusarium nivale. Described as above. It is filed as cell-based. To be noted: Microdochium nivale, 24° C., read-out: ED50 value. The method, then:
as §1, §2
Consider `Cc1cc(C)n(-c2nc(C)c(C)c(Oc3ccccc3)n2)n1` [Compound 38], for which the IC50 stood at 2.7 µg/mL (≈ 9.17 µM).

As for `Cc1ccc(Oc2cc(C)nc(-n3nc(C)cc3C)n2)c(C)c1` [Compound 27], the IC50 was 2.8 µg/mL (≈ 9.08 µM).

The next data set has as its system Penicillium digitatum. Described as above. It is filed as cell-based. The settings on record: 24° C., read-out: ED50 value. The procedure: as §1, §2
As to `Cc1cc(C)n(-c2nc(C)c(C)c(Oc3ccccc3)n2)n1` [Compound 38], the IC50 was 1.4 µg/mL (≈ 4.76 µM).

Consider `Cc1ccc(Oc2cc(C)nc(-n3nc(C)cc3C)n2)c(C)c1` [Compound 27], for which the IC50 stood at 1.2 µg/mL (≈ 3.89 µM).

In the next data set the test system is Phoma lingam. Described as above. To be noted: Plenodomus lingam, 24° C., read-out: ED50 value. It is filed as cell-based. The procedure:
as §1, §2
As to `Cc1cc(C)n(-c2nc(C)c(C)c(Oc3ccccc3)n2)n1` [Compound 38], the IC50 stood at 2.7 µg/mL (≈ 9.17 µM).

`Cc1ccc(Oc2cc(C)nc(-n3nc(C)cc3C)n2)c(C)c1` [Compound 27]: the IC50 turned out to be 3.7 µg/mL (≈ 12 µM).

In the next data set the test system is rice plant.
Assay: not given
The settings on record: in vivo.
`Cc1cc(C)n(-c2nc(C)c(C)c(Oc3ccccc3)n2)n1` [Compound 38]: the “Degree of chemical injury” value is 0.

The test system of a further data set is Cochliobolus miyabeanus. Put plainly: Effect of controlling rice brown spot, Experimental Example 3. It is filed as in vivo, Cochliobolus miyabeanus on rice plant (variety: Asahi). To be noted: sprayed liquid 500 ppm, 5 days after inoculation.
Consider `Cc1cc(C)n(-c2nc(C)c(C)c(Oc3ccccc3)n2)n1` [Compound 38], for which the “Control Value” stood at 87%.

For the next data set, the system named is Pyricularia oryzae.
Assay: not given
Format: in vivo, Pyricularia oryzae on rice plant (variety: Asahi). To be noted: rice blast, prevention; 200 ppm; 5 days after inoculation.
As for `Cc1cc(C)n(-c2nc(C)c(C)c(Oc3ccccc3)n2)n1` [Compound 38], the “Control Value” is listed as 100%.

Turning to `Cc1ccc(Oc2cc(C)nc(-n3nc(C)cc3C)n2)c(C)c1` [Compound 27], the “Control Value” was 100%.

The next data set relates to Sphaerotheca friliginea. The experiment in a line: Effect of controlling cucumber powdery mildew, Experimental Example 4. Format: in vivo. To be noted: sprayed liquid 200 ppm, 10 days after inoculation. The procedure:
10 ml of each of test liquids diluted to a predetermined concentration was sprayed over seedlings of a cucumber plant (variety: Sagami Hanpaku) grown up to the first leaf stage which has been soil cultured in an unglazed pot with a diameter of 9 cm in a green house. After allowing to stand overnight, the seedlings were sprayed for inoculation with a spore suspension of Sphaerotheca friliginea. Ten days after the inoculation, the rate of a lesion area (%) was checked and a control value was evaluated from the following equation. The degree of chemical injury against a cucumber plant was determined in the same manner as in Experimental Example.
Compound `Cc1cc(C)n(-c2nc(C)c(C)c(Oc3ccccc3)n2)n1` [Compound 38] yielded a Control Value of 100%.
